Patent US20050129765A1, “Controlled release of topiramate in liquid dosage forms” (priority 2003, published 2005)

Assays:
[1] = Drug solubility in various carriers; assay type: physicochemical
[2] = cited from earlier work

CC1(C)O[C@@H]2[C@@H](CO[C@@]3(COS(N)(=O)=O)OC(C)(C)O[C@@H]23)O1 [topiramate, 2,3:4,5-di-O-isopropylidene-β-D-fructopyranose sulfamate]
solubility in carrier ([1]; 20-30% topiramate in 90/10, 80/20 or 70/30 PEG 400/Cremophor EL): completely soluble | solubility in carrier ([1]; 45% topiramate in 100% of PEG400): completely soluble | solubility (qualitative) ([2]; alkaline solutions containing sodium hydroxide or sodium phosphate, acetone, dimethylsulfoxide and ethanol): soluble | solubility in water ([2]; in water): about 9.8 mg/ml
